Measurements: patent publication US20110224276A1, “OPTICAL ISOMER OF PHENYLPROPIONIC ACID AND ITS MEDICINAL USE” (priority 2008, published 2011)
pIC50: −log10 of the molar value. “And” between values parts separate entries of the source, which are not always exact repeats. Equal values may be shown once. Read-outs that look alike come from different tables or passages of the source.

What was measured:
[1] = target: T1, Cox-2 (Homo sapiens, UniProt P35354); experiment: inhibiting activity to COX-2 (TMPD colorimetric, 590 nm); assay type: biochemical; conditions: tested at 300, 100, 30, 10 μmol/L (positive control 100, 30, 10, 3)
T1 construct: purchased Cayman, USA
T1 sequence (P35354 18-604): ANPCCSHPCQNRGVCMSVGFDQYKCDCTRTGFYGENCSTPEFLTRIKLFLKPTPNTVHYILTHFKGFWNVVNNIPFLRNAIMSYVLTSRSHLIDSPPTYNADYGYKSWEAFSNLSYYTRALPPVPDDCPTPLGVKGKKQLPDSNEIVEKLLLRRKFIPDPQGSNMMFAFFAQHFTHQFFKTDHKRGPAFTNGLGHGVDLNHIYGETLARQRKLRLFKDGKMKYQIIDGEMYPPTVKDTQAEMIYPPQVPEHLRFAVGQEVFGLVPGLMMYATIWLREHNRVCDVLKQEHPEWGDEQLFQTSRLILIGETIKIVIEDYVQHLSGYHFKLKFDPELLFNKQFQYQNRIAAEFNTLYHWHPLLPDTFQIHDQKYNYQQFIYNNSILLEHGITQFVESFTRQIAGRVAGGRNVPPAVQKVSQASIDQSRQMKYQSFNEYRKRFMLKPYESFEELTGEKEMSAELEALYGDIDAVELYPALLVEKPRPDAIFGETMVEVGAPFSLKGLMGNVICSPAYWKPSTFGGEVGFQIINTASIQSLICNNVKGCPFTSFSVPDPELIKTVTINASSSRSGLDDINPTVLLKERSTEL
Method: 2.5.1 The Inhibiting Activity to COX-1/COX-2
(1) In 220 ul of reaction system, mixed buffer (1×), heme, COX-1/COX-2, and the compound to be tested, are sequentially added, and are incubated for 5 minutes at 25° C.;
(2) Adding chromogenic substrate (TMPD) and arachidonic acid;
(3) Carefully shaking the plate for several seconds, then incubating for 15 minutes at 25° C.;
(4) Detecting absorption value at 590 nm.
Fitting data of concentration (μmol/L) and corresponding inhibition rate (%) via Microsoft EXCEL software to get a trendline, so as to obtain the half-effective inhibiting concentration (IC50) of each tested enzyme.

[2] = system: hot plate pain threshold of mice; experiment: hot plate pain threshold of mice; assay type: in vivo; conditions: 40 mg/kg ip, 0 h (base threshold before administration)
[3] = pharmacokinetic study in rats of ig administration; assay type: in vivo
[4] = system: auricle tumefaction of mice caused by xylene; experiment: auricle tumefaction of mice caused by xylene; assay type: in vivo; conditions: 3 h after xylene
Method: 90 healthy Kunming species of Mus musculus albus are selected, male, weight 18˜22 g, totally 9 tested groups, and each group of 10 mice, said tested groups comprising:
At 0.5 h before modeling, groups (8) and (9) are administrated tested drugs, and other groups are administrated tested drugs at 1 h before modeling. During modeling, the right ears of mice are coated with xylene at concentration of 30 μl/per ear to inflame the ear, and the left ears are performed no treatment. Once 3 h after coating xylene, the animals are sacrificed, and two ears of each mouse are cut, and ear wafers are obtained by making holes at the same positions of ears with puncher with diameter of 8 mm, and then are weighted via an electronic balance.
The tumefaction degree refers to the weight difference of the weight of inflamed ear wafer minus non-inflamed ear wafer. The tumefaction rate tumefaction degree/the weight of normal ear wafer×100‰ The average value of the tumefaction degree and tumefaction rate of each tested group is compared, so as to obtain the ability of anti-inflammation of each tested drug.
Using Microsoft EXCEL software, the average value of tumefaction degree of each tested group and the average value of control group are analyzed by means of t-test, and P<0.05 is considered as statistically significant difference.

[5] = background statement; cited from earlier work
[6] = ig 50 mg/kg, individual animals A-F, listed as R-type isomer

Compound: C[C@@H](C(=O)O)c1ccc2c(c1)CC(=O)c1ccccc1S2 [R, R-10,11-dihydro-alpha-methyl-10-oxo-dibenzo[b,f]tiazem-2-acetic acid]
- pIC50 [1]: 4.31
- pain threshold(s) 0 h [2]: 15.2 ± 15.1 s
- transformation between R-isomer and S-isomer during monitoring of blood drug level ([3]; ig): No transformation between R-isomer and S-isomer is detected
- AUC(0-48) [3, 6]: 723.9 µg·h/mL and 239.0 µg·h/mL and 330.6 µg·h/mL and 814.3 µg·h/mL and 324.2 µg·h/mL and 1336.0 µg·h/mL
- AUG(0-∞) [3, 6]: 772.8 mg/L*h and 337.7 mg/L*h and 818.7 mg/L*h and 325.6 mg/L*h and 1374.1 mg/L*h
- CLz/F [3, 6]: 0.1 L/h/kg (3×) and 0.2 L/h/kg (2×) and 0.0 L/h/kg
- Cmax [3, 6]: 260.8 µg/mL and 98.9 µg/mL and 67.8 µg/mL and 223.1 µg/mL and 131.5 µg/mL and 184.2 µg/mL
- MRT(0-48) [3, 6]: 7.4 h and 2.2 h and 9.1 h and 5.4 h and 5.0 h and 10.3 h
- Tmax [3, 6]: 1.0 h (2×) and 0.5 h (2×) and 0.3 h (2×)
- t1/2z [3, 6]: 10.0 h and 2.2 h and 9.8 h and 7.8 h and 4.9 h and 9.6 h
- AUG(0-∞) Mean ([3]; ig 50 mg/kg, mean of A-F): 647.5 mg/L*h
- CLz/F Mean ([3]; ig 50 mg/kg, mean of A-F): 1.7 mL/min/kg
- t1/2z Mean ([3]; ig 50 mg/kg, mean of A-F): 7.4 h
- AUC(0-t) ([3]; rat, plasma, po, 50 mg/kg, ig 50 mg/kg, mean of A-F, read-out: AUC(0-48) Mean): 628 µg·h/mL
- Cmax ([3]; rat, plasma, po, 50 mg/kg, ig 50 mg/kg, mean of A-F, read-out: Cmax Mean): 161 µg/mL
- MRT last ([3]; rat, plasma, po, 50 mg/kg, ig 50 mg/kg, mean of A-F, read-out: MRT(0-48) Mean): 6.6 h
- Tmax ([3]; rat, plasma, po, 50 mg/kg, ig 50 mg/kg, mean of A-F, read-out: Tmax Mean): 0.6 h
- Vd/F ([3]; rat, plasma, po, 50 mg/kg, ig 50 mg/kg, mean of A-F, read-out: Vz/F Mean): 1 L/kg
- tumefaction degree ([4]; 20 mg/kg ip): 3.5 ± 2.0 mg
- tumefaction degree ([4]; 40 mg/kg ig): 3.8 ± 2.8 mg
- tumefaction degree ([4]; 40 mg/kg ip): 2.3 ± 1.8 mg
- tumefaction degree ([4]; 80 mg/kg ig): 2.5 ± 1.4 mg

Compound: CC(C(=O)O)c1ccc2c(c1)CC(=O)c1ccccc1S2 (racemic) [RS, 10,11-dihydro-alpha-methyl-10-oxo-dibenzo[b,f]tiazem-2-acetic acid, reference compound]
- pIC50 [1]: 5.12
- tumefaction degree ([4]; 10 mg/kg ig): 5.2 ± 2.9 mg
- tumefaction degree ([4]; 20 mg/kg ig): 3.7 ± 2.5 mg
- abirritation, times more than Indomethacin, Diclofenac Sodium, Ketoprofen, mefenamic acid [5]: 3-28 times

Compound: C[C@H](C(=O)O)c1ccc2c(c1)CC(=O)c1ccccc1S2 [S, S-10,11-dihydro-alpha-methyl-10-oxo-dibenzo[b,f]tiazem-2-acetic acid]
- pIC50 [1]: 4.67
- tumefaction degree ([4]; 10 mg/kg ig): 4.9 ± 2.3 mg
- tumefaction degree ([4]; 20 mg/kg ig): 3.1 ± 3.2 mg
